Read-outs that look alike come from different tables or passages of the source.
Target: β-glucuronidase activity in live E. coli (4MUG to 4MU conversion) (Escherichia coli, UniProt P05804)
Assay: Cell-based E. coli assay with 4MUG substrate, with and without esterase pre-treatment of prodrug
Details: for IC50: live E. coli
Method: For esterase activation, the prodrug is treated with 5 mg/mL esterase for 30 mins at 37° C. to cleave the ester bonds yielding the glucuronide moiety. Following treatment, an inhibitor titration ranging from 10 uM to 10 pM is mixed and preincubated with live E. coli for 5 mins or 4 hours at 37° C. in a microplate with assay buffer (HEPES pH 7, NaCl). Chemically synthesized SY65-G is included as a positive control. Following preincubation, 4-methylumbelliferyl glucuronide (4MUG) is added at a final concentration of 100 uM to the cell and inhibitor mixture. The conversion of 4MUG to 4MU is detected via fluorescence (Ex./Em.: 360/460). […] The untreated prodrug is not active.

[1] = 5 min preincubation, no esterase treatment, read-out: Potency, pre-incubation time 5 min
[2] = 5 min preincubation, treated with 5 mg/mL esterase for 30 mins at 37° C., read-out: Potency, pre-incubation time 5 min, + Esterase
[3] = 4 hour preincubation, no esterase treatment, read-out: Potency, pre-incubation time 4 hour
[4] = 4 hour preincubation, treated with 5 mg/mL esterase for 30 mins at 37° C., read-out: Potency, pre-incubation time 4 hour, + Esterase

Sequence of β-glucuronidase activity in live E. coli (4MUG to 4MU conversion) (P05804 whole entry): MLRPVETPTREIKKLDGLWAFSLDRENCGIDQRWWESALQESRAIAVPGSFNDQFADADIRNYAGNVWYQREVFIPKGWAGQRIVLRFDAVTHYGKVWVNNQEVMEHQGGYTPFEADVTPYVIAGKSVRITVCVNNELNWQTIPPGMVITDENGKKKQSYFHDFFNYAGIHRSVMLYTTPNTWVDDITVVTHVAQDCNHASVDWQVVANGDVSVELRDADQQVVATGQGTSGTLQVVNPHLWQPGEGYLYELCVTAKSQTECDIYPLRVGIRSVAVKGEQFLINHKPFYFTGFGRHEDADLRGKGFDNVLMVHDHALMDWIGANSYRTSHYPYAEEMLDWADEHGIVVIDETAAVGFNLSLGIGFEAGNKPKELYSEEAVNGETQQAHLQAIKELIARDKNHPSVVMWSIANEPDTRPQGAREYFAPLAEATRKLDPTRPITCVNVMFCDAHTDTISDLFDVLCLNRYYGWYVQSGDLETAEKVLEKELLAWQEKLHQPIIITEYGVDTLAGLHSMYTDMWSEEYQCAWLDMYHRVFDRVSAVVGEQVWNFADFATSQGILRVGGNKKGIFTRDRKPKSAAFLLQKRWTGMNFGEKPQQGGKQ

Cc1cc(C)c2[nH]c(=O)c(CN(CCO[C@@H]3O[C@H](C(=O)O)[C@@H](O)[C@H](O)[C@H]3O)C(=O)Nc3ccccc3C(C)C)cc2c1 [SY65-G, (2S,3S,4S,5R,6R)-6-[2-[(6,8-dimethyl-2-oxo-1H-quinolin-3-yl)methyl-[(2-isopropylphenyl)carbamoyl]amino]ethoxy]-3,4,5-trihydroxy-tetrahydropyran-2-carboxylic acid] was tested, and the IC50 [1] was 125 nM, the IC50 [2] was 93 nM and the IC50 [3] was 0.53 nM. For the same molecule, the IC50 [4] was 0.57 nM.
In the case of COC(=O)[C@H]1O[C@@H](OCCN(Cc2cc3cc(C)cc(C)c3[nH]c2=O)C(=O)Nc2ccccc2C(C)C)[C@H](OC(C)=O)[C@@H](OC(C)=O)[C@@H]1OC(C)=O [SY65-G-Ac, Methyl (2S,3S,4S,5R,6R)-3,4,5-triacetoxy-6-[2-[(6,8-dimethyl-2-oxo-1H-quinolin-3-yl)methyl-[(2-isopropylphenyl)carbamoyl]amino]ethoxy]tetrahydropyran-2-carboxylate], the “Potency of esterase treated prodrug versus glucuronide positive control” value (esterase treated) is reported as “just as potent as the glucuronide positive control”, the IC50 [1] is reported as greater than 10000 nM and the IC50 [2] is reported as 156 nM. For the same molecule, the IC50 [3] was greater than 10000 nM, the IC50 [4] was 0.52 nM and the “Activity of untreated prodrug in cell-based assay” value (without esterase treatment) was “not active”.

Reference: patent US20220125778A1 (priority 2019, published 2022)
